Test [1] has as its system human prostatic tissue (BPH or prostate cancer). In words: Prostate tissue in histoculture, DNA synthesis ([3H]-thymidine uptake). The note with it: for reversal of testosterone-stimulated DNA synthesis (in words), 1 μM: inhibitor 1 μM, testosterone 1 μM, FIG. 1. On the procedure:
We recently developed a histoculture method to evaluate the growth inhibiting properties of the compounds on human prostatic tissue. […] The tissue samples were then incubated for 3 days in fresh medium/treatment containing 2 μCi/ml [^3 H]-thymidine. Tissue was then digested and DNA extracted. For each sample, [^3 H]-thymidine uptake was normalized to DNA content. […] This finding is consistent with the compound acting as an antiandrogen. None of the compounds produced an independent effect on DNA synthesis in the absence of added androgens.

In test [2] the test system is LNCaP human prostatic cancer cell line. In words: Androgen-dependent growth of LNCaP cells. The note with it: for reversal of DHT-stimulated LNCaP growth (in words): 0.03 nM DHT; for reversal of testosterone-stimulated LNCaP growth (in words): inhibitor 0.3-5 μM, 9 days. On the procedure:
The ability of various inhibitors to reverse the stimulatory effect of testosterone on the growth of the LNCaP human prostatic cancer cell line was tested by comparing cell number in wells treated for 9 days with either drug vehicle only (control), 0.1 nM testosterone only, or 0.1 nM testosterone with inhibitor at 0.3, 1, 2.5, or 5 μM.

Test [3] concerns the target T1, Human Testicular 17α-Hydroxylase (Homo sapiens, UniProt P05093).
T1 construct: incubating human testicular microsomes; from tissue; host or cells: human testis, microsomes
T1 sequence (P05093 1-508): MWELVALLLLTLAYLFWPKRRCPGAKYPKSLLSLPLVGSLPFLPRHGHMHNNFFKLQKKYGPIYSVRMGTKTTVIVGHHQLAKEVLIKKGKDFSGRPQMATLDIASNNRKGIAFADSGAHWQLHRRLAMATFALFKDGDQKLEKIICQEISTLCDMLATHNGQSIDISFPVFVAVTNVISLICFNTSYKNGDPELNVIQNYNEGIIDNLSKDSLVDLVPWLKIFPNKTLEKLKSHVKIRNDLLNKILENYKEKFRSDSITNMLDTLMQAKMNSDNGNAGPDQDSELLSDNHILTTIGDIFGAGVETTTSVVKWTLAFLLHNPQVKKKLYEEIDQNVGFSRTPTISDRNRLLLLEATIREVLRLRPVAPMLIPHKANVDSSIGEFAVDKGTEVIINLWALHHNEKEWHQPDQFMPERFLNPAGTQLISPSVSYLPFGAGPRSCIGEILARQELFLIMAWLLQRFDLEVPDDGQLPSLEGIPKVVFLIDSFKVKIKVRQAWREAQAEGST
In words: Inhibition of human testicular 17α-hydroxylase (pregnenolone substrate, testicular microsomes). It counts as biochemical. As to conditions: for inhibition at 0.4 µM: read-out: % Inhibition 17α-hydroxylase, [I] = 400 nM. On the procedure:
(§1) The conversion of radiolabeled pregnenolone to 17α-hydroxypregnenolone and DHEA by 17α-hydroxylase/C17,20 -lyase was measured by incubating human testicular microsomes with different concentration of test compounds. Reverse phase HPLC was used to separate and accurately quantify the amount of substrate and metabolites. The 17α-hydroxylase and C17,20 -lyase activities were calculated separately. The activity of 17α-hydroxylase was calculated from the conversion of pregnenolone to 17α-hydroxypregnenolone and DHEA and the activity of C17,20 -lyase was based on the conversion of pregnenolone to DHEA. Although 17α-hydroxypregnenolone is the substrate converted to DHEA by C17,20 -lyase, it has been reported that this 17α-hydroxy intermediate is not released from the enzyme binding site during conversion (Nakajin et al., 1981a,b). Also, there are species differences in substrate requirements. Pregnenolone is the natural substrate rather than progesterone for human testicular 17α-hydroxylase and C17,20 -lyase. Therefore, pregnenolone was used as substrate for measuring the activity of this enzyme complex.

For test [4], the target named is T2, Human Testicular C17,20-lyase (Homo sapiens, UniProt P05093).
T2 construct: incubating human testicular microsomes; from tissue; host or cells: human testis, microsomes
T2 sequence (P05093 1-508): T1 sequence (P05093 1-508)
In words: Inhibition of human testicular C17,20-lyase (pregnenolone substrate, testicular microsomes). It counts as biochemical. The note with it: for inhibition at 0.1 µM: read-out: % Inhibition C17,20-lyase, [I] = 100 nM; for inhibition at 0.4 µM: read-out: % Inhibition C17,20-lyase, [I] = 400 nM. On the procedure: as §1

In test [5] the target is T3, Human Prostatic 5α-Reductase (Homo sapiens, UniProt P31213).
T3 sequence (P31213 1-254): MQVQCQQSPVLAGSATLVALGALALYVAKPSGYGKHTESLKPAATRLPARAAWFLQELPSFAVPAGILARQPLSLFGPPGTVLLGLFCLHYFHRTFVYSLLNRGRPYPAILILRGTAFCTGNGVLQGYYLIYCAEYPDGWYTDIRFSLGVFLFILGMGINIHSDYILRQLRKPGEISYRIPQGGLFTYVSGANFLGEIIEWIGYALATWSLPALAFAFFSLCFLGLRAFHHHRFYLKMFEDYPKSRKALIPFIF
In words: Inhibition of human prostatic 5α-reductase (prostatic microsomes, [3H]testosterone). As to conditions: for inhibition at 0.01 µM: read-out: % Inhibition of 5α-reductase, [I] 10 nM; for inhibition at 0.1 µM: read-out: % Inhibition of 5α-reductase, [I] 100 nM.

Test [6] has as its target T4, human 17α-hydroxylase/C17,20-lyase (Homo sapiens, UniProt P05093).
T4 construct: incubating human testicular microsomes; from tissue; host or cells: human testis, microsomes
T4 sequence (P05093 1-508): T1 sequence (P05093 1-508)
In words: Inhibition of human testicular 17α-hydroxylase/C17,20-lyase (enzyme complex as a whole). It counts as biochemical. As for the experimental part:
as §1

Where [7] appears, read: Table 1, NI = no inhibition, read-out: IC50 17α-OHase.
Where [8] appears, read: Table 1, NI = no inhibition, CI = complete inhibition, read-out: IC50 C17,20 lyase.
The mark [9] stands for this setting: IC50 5α-reductase, Table 3, NI = no inhibition.

Where two headings read alike, the source gives them in different places. A value given as a limit tells only on which side of the number the result lay.

With `C[C@]12CC[C@H]3[C@@H](CCC4=CC(=O)CC[C@@]43C)[C@@H]1CC[C@@H]2O` [Testosterone, reference compound], in test [1] (Homo sapiens, read-out: stimulation of DNA synthesis by testosterone), the fold induction at 1 µM is ~2. Moreover, the fold induction at 0.0001 µM in test [2] (Homo sapiens, LNCaP, 216 h, read-out: stimulation of LNCaP growth by testosterone) is 2.
On to `C[C@]12CC[C@H]3[C@@H](CCC4=CC(=O)CC[C@@]43C)[C@@H]1CC[C@@H]2c1c[nH]cn1` [Compound I-41, 17β-(4'-imidazolyl)-androst-4-en-3-one], for which the “reversal of testosterone-stimulated DNA synthesis (in words), 1 μM” value (from here on “reversal … 1 μM”) in test [1] is listed as “without effect”. Also, the IC50 in test [3] (setting [7]) is 0.059 µM; in test [3] (Table 3, first figure of 17α-hydroxylase/lyase pair, read-out: IC50 17α-hydroxylase), 0.0594 µM; in test [3] (first figure of pair, read-out: IC50 17α-hydroxylase), 0.059 µM; in test [4] (setting [8]) it was 0.005 µM; in test [4] (Table 3, second figure of pair, CI = complete inhibition, read-out: IC50 lyase) it was 0.00561 µM; in test [4] (second figure of pair, read-out: IC50 C17,20-lyase), 0.005 µM. In addition, the IC50 in test [5] (IC50 5α-reductase) and in test [5] (setting [9]) was 0.122 µM in each case.
Turning to `C[C@@H](O)C1=CC[C@H]2[C@@H]3CC=C4C[C@@H](O)CC[C@]4(C)[C@H]3CC[C@]12C` [Compound L-8], the inhibition at 0.4 µM came out at 82.7% in test [3] and 83.3% in test [4]. The IC50 in test [6] (read-out: IC50 17α-hydroxylase/lyase (single entry), one value for 17α-hydroxylase/lyase, NI = no inhibition) was 0.1 µM. Besides, the inhibition at 0.1 µM in test [4] amounted to 66.2%. In test [5], the inhibition at 0.01 µM stood at 37.1%.
For the compound `CN(C=O)[C@H]1CC[C@H]2[C@@H]3CCC4=CC(=O)CC[C@]4(C)[C@H]3CC[C@]12C` [Compound I-40], the IC50 in test [3] (setting [7]) was found to be 0.76 µM; in test [4] (setting [8]), 0.68 µM; in test [5] (IC50 5α-reductase, Table 2), 0.15 µM. In addition, the “fold lower inhibition than I-16” value in test [6] (vs I-16) is on record as “approximately 4 fold”.
As for `C[C@@H](O)[C@H]1CC[C@H]2[C@@H]3CC=C4C[C@@H](O)CC[C@]4(C)[C@H]3CC[C@]12C` [Compound I-20], the IC50 in test [3] (IC50 17α-OHase) is 0.18 µM; in test [4] (IC50 C17,20 lyase), 0.19 µM. Also, the “inhibition of 17α-hydroxylase/C17,20-lyase (in words)” value in test [6] (NI = no inhibition) is recorded as “potent inhibition”. Moreover, the “inhibition of 5α-reductase (in words)” value in test [5] (NI = no inhibition) is given as “neither showed activity against 5α-reductase”.
For the compound `CCN(CC)C(=O)[C@H]1CC[C@H]2[C@@H]3CC[C@H]4N(C)C(=O)CC[C@]4(C)[C@H]3CC[C@]12C` [Compound 4MA, reference compound], in test [1] (inhibitor 0.3 μM), the “inhibition of testosterone-stimulated DNA synthesis (in words), 0.3 μM” value is “highly effective”. Also, in test [1], the “reversal … 1 μM” value is recorded as “almost complete reversal”. For the same compound, in test [2], the “reversal of DHT-stimulated LNCaP growth (in words)” value was “dose-dependent reversal”. Besides, the “reversal of testosterone-stimulated LNCaP growth at 5 μM (in words)” value in test [2] (0.1 nM testosterone, inhibitor 5 μM) is “almost completely reversed”. Further, in test [2] (0.1 nM testosterone), the “reversal of testosterone-stimulated LNCaP growth (in words)” value is “dose-dependent reversal”. For the same compound, the IC50 in test [2] (Homo sapiens, LNCaP, 216 h, read-out: concentration reducing the stimulatory effect of testosterone by 50%) was ≤ 1 µM. This compound also returned an IC50 in test [5] (IC50 5α-reductase, Table 2) of 0.01 µM. Also, in test [5], the inhibition at 0.01 µM stood at 71.9% and the inhibition at 0.1 µM was 92%.
Turning to `C[C@@H](O)C1=CC[C@H]2[C@@H]3CCC4=CC(=O)CC[C@]4(C)[C@H]3CC[C@]12C` [Compound L-10, 20β-hydroxy-pregna-4,16-dien-3-one], the “reversal of DHT-stimulated LNCaP growth (in words)” value in test [2] is listed as “not dose-dependent”. Besides, the “reversal of testosterone-stimulated LNCaP growth (in words)” value in test [2] (0.1 nM testosterone) was “dose-dependent reversal”. Besides, the inhibition at 0.1 µM came to 14.9% in test [3] (read-out: % Inhibition 17α-hydroxylase, [I] = 100 nM); 2.28% in test [4]; 90.7% in test [5]. In addition, the inhibition at 0.4 µM in test [3] was 8.19%; in test [4], 8.48%. The IC50 in test [5] (IC50 5α-reductase) worked out at 0.02 µM; in test [5] (IC50 5α-reductase, Table 2) it was 0.021 µM; in test [5] (setting [9]), 0.021 µM. Also, the “inhibition of 5α-reductase (in words)” value in test [5] (NI = no inhibition) was “almost equipotent with finasteride”. Besides, the inhibition at 0.01 µM in test [5] came to 97%.
As for `CC(=NO)[C@H]1CC[C@H]2[C@@H]3CCC4=CC(=NO)CC[C@]4(C)[C@H]3CC[C@]12C` [Compound I-43], the “reversal … 1 μM” value in test [1] is listed as “without effect”. Further, the IC50 in test [3] (setting [7]) amounted to 0.09 µM; in test [4] (setting [8]) it was 0.07 µM; in test [5] (read-out: IC50 5α-reductase, Table 2), 1.27 µM. Further, the “inhibition of 17α-hydroxylase/C17,20-lyase (in words)” value in test [6] (NI = no inhibition) is reported as “decreased activity”. The “inhibition of 5α-reductase (in words)” value in test [5] (NI = no inhibition) was “decreased activity”.

For orientation: inhibition means the drop in the measured response relative to a control, in per cent.

The values above are taken from US5994334A, “Androgen synthesis inhibitors” (priority 1997, dated 1999).
